{
  "source": "patent US20030215462A1",
  "about": "“Use of UGT inhibitors to increase bioavailability” (priority 2001, published 2003)",
  "format_in_all_cases": "biochemical",
  "key": {"[1]": {"biological_target": "T1, UGT enzymes of human liver microsomes (Homo sapiens, UniProt P16662)", "T1 construct": "residual metabolism (percentage of control), zidovudine glucuronidation; other: liver lot 062101; residual metabolism (percentage of control), zidovudine glucuronidation; residual metabolism (percentage of control)", "T1 sequence (P16662 1-529)": "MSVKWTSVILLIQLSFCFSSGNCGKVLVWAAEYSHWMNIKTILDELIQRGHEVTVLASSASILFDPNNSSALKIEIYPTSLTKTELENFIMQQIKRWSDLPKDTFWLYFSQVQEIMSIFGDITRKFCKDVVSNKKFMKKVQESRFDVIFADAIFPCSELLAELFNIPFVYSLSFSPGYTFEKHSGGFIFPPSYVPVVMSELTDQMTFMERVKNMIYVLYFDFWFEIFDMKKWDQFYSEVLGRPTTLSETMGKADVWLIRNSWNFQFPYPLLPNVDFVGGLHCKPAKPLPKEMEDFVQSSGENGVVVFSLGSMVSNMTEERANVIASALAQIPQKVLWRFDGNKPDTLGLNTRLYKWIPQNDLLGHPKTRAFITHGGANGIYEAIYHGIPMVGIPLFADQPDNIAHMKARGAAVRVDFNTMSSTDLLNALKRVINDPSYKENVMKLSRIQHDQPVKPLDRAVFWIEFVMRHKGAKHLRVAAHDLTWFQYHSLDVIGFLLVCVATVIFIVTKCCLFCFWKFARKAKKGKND", "test": "Inhibition of zidovudine glucuronidation in human liver microsomes", "conditions": "liver lot 062101", "method": "Compounds were eluted using a binary solvent gradient system where solvent A was dilute phosphoric acid (pH 3) and solvent B was acetonitrile.\nStandardized incubations utilized 500 μM zidovudine substrate, 1 mg/ml microsomal protein, 5 mM UDPGA and a 30 min incubation time. […] Int."}, "[2]": {"tested_on": "UGT enzymes of pooled human jejunum microsomes", "test": "Inhibition of raloxifene glucuronidation (G1, G2) in pooled human jejunum microsomes", "conditions": "jejunum HJ61; inhibitor 50 μM", "method": "(§1) Compounds were eluted using a binary solvent gradient system. […] Solvent B was methanol. […] Detection was at 280 nm.\nStandardized incubations utilized […] microsomal protein, 1 mM UDPGA and a 30 min incubation time."}, "[3]": {"tested_on": "T2, UGT enzymes of human liver microsomes", "T2 construct": "other: liver 062101", "test": "Inhibition of 2ME2 glucuronidation (MG1, MG2) in human liver microsomes", "conditions": "liver 062101, 2ME2 50 μM", "from_the_text": "(§2) Compounds were eluted using a binary solvent gradient system where solvent A was dilute phosphoric acid (pH 3) and solvent B was 80:20 acetonitrile-methanol. […] Detection was at 280 nm."}, "[4]": {"tested_on": "T3, UGT enzymes of human liver microsomes", "T3 construct": "residual metabolism (percentage of control), labetalol LG1; other: labetalol 50 μM; residual metabolism (percentage of control), labetalol LG1; residual metabolism (percentage of control), labetalol LG2; inhi", "test": "Inhibition of labetalol glucuronidation (LG1, LG2) in human liver microsomes", "conditions": "labetalol 50 μM; inhibitor 100 μM"}, "[5]": {"tested_on": "UGT enzymes of human liver microsomes", "test": "Inhibition of raloxifene glucuronidation (G1, G2) in human liver microsomes", "conditions": "for % of control metabolism (SD, n = 3), raloxifene glucuronide G1 / % of control metabolism (SD, n = 3), raloxifene glucuronide G2: human liver microsomes 250 μg/ml, 15 min", "from_the_text": "as §1"}, "[6]": {"tested_on": "UGT enzymes of pooled human jejunum microsomes", "test": "Inhibition of 2ME2 glucuronidation (MG1) in pooled human jejunum microsomes", "conditions": "jejunum HJ61, 2ME2 50 μM", "from_the_text": "as §2"}, "[7]": {"tested_on": "T4, UGT enzymes of human liver microsomes", "T4 construct": "residual metabolism (% of control), E2-17-β-D-glucuronide; other: liver 032101; residual metabolism (% of control), E2-17-β-D-glucuronide", "test": "Inhibition of estradiol (E2) glucuronidation in human liver microsomes", "conditions": "liver 032101; E2 50 μM; inhibitor 50 μM", "from_the_text": "as §2"}, "[8]": {"tested_on": "UGT enzymes of human liver microsomes", "test": "Inhibition of estradiol (E2) glucuronidation in human liver microsomes", "conditions": "liver 062101; E2 50 μM; inhibitor 50 μM", "from_the_text": "as §2"}, "[9]": {"tested_on": "T5, UGT enzymes of human liver microsomes", "T5 construct": "residual metabolism (% of control), E2-3-β-D-glucuronide; other: liver 032101; residual metabolism (% of control), E2-3-β-D-glucuronide", "test": "Inhibition of estradiol (E2) glucuronidation in human liver microsomes", "conditions": "liver 032101; E2 50 μM; inhibitor 50 μM", "from_the_text": "as §2"}, "[10]": {"conditions": "inhibitor 10 μM, raloxifene 50 μM"}, "[11]": {"conditions": "inhibitor 25 μM, raloxifene 50 μM"}, "[12]": {"conditions": "inhibitor 50 μM, raloxifene 50 μM"}, "[13]": {"conditions": "inhibitor 100 μM, raloxifene 50 μM"}, "[14]": {"conditions": "inhibitor 500 μM, raloxifene 50 μM"}, "[15]": {"conditions": "liver lot 032101, inhibitor 50 μM"}, "[16]": {"conditions": "liver lot 062101, inhibitor 50 μM"}, "[17]": {"conditions": "liver lot 083000, inhibitor 50 μM"}, "[18]": {"conditions": "raloxifene 50 μM, inhibitor 10 μM"}, "[19]": {"conditions": "raloxifene 50 μM, inhibitor 25 μM"}, "[20]": {"conditions": "raloxifene 50 μM, inhibitor 50 μM"}, "[21]": {"conditions": "raloxifene 50 μM, inhibitor 100 μM"}},
  "data": [
    {"smiles": "O=C(O[C@@H]1Cc2c(O)cc(O)cc2O[C@@H]1c1cc(O)c(O)c(O)c1)c1cc(O)c(O)c(O)c1", "note": "[Epigallocatechin gallate]", "values": [
      {"measurement": "residual metabolism (percentage of control), zidovudine glucuronidation", "setting": "[1]; inhibitor 50 μM", "value": "70 (1) %"},
      {"measurement": "residual metabolism (percentage of control), zidovudine glucuronidation", "setting": "[1]; inhibitor 100 μM", "value": "60 (2) %"},
      {"measurement": "residual metabolism (percentage of control), zidovudine glucuronidation", "setting": "[1]; inhibitor 200 μM", "value": "39 (2) %"},
      {"measurement": "residual metabolism (percentage of control), zidovudine glucuronidation", "setting": "[1]; inhibitor 500 μM", "value": "18 (1) %"},
      {"measurement": "% of control metabolism, raloxifene G1", "setting": "[2]", "value": "38 (2) %"},
      {"measurement": "% of control metabolism, raloxifene G2", "setting": "[2]", "value": "35 (4) %"},
      {"measurement": "residual metabolism (% of control), 2ME2 MG1", "setting": "[3]; inhibitor 25 μM", "value": "61 (1) %"},
      {"measurement": "residual metabolism (% of control), 2ME2 MG2", "setting": "[3]; inhibitor 25 μM", "value": "79 (0) %"},
      {"measurement": "residual metabolism (% of control), 2ME2 MG1", "setting": "[3]; inhibitor 50 μM", "value": "48 (2) %"},
      {"measurement": "residual metabolism (% of control), 2ME2 MG2", "setting": "[3]; inhibitor 50 μM", "value": "71 (1) %"},
      {"measurement": "residual metabolism (% of control), 2ME2 MG1", "setting": "[3]; inhibitor 100 μM", "value": "29 (1) %"},
      {"measurement": "residual metabolism (% of control), 2ME2 MG2", "setting": "[3]; inhibitor 100 μM", "value": "35 (1) %"},
      {"measurement": "residual metabolism (percentage of control), labetalol LG1", "setting": "[4]", "value": "55 (2) %"},
      {"measurement": "residual metabolism (percentage of control), labetalol LG2", "setting": "[4]", "value": "52 (5) %"},
      {"measurement": "% of control metabolism (SD, n = 3), raloxifene glucuronide G1", "setting": "[5]; [10]", "value": "85 (3) %"},
      {"measurement": "% of control metabolism (SD, n = 3), raloxifene glucuronide G1", "setting": "[5]; [11]", "value": "56 (1) %"},
      {"measurement": "% of control metabolism (SD, n = 3), raloxifene glucuronide G1", "setting": "[5]; [12]", "value": "46 (2) %"},
      {"measurement": "% of control metabolism (SD, n = 3), raloxifene glucuronide G1", "setting": "[5]; [13]", "value": "22 (1) %"},
      {"measurement": "% of control metabolism (SD, n = 3), raloxifene glucuronide G1", "setting": "[5]; [14]", "value": "0 (0) %"},
      {"measurement": "% of control metabolism (SD, n = 3), raloxifene glucuronide G2", "setting": "[5]; [10]", "value": "82 (3) %"},
      {"measurement": "% of control metabolism (SD, n = 3), raloxifene glucuronide G2", "setting": "[5]; [11]", "value": "63 (1) %"},
      {"measurement": "% of control metabolism (SD, n = 3), raloxifene glucuronide G2", "setting": "[5]; [12]", "value": "50 (3) %"},
      {"measurement": "% of control metabolism (SD, n = 3), raloxifene glucuronide G2", "setting": "[5]; [13]", "value": "27 (2) %"},
      {"measurement": "% of control metabolism (SD, n = 3), raloxifene glucuronide G2", "setting": "[5]; [14]", "value": "0 (0) %"},
      {"measurement": "% of control metabolism, raloxifene G1", "setting": "[5]; [15]", "value": "54 (2) %"},
      {"measurement": "% of control metabolism, raloxifene G2", "setting": "[5]; [15]", "value": "50 (2) %"},
      {"measurement": "% of control metabolism, raloxifene G1", "setting": "[5]; [16]", "value": "68 (2) %"},
      {"measurement": "% of control metabolism, raloxifene G2", "setting": "[5]; [16]", "value": "41 (2) %"},
      {"measurement": "% of control metabolism, raloxifene G1", "setting": "[5]; [17]", "value": "46 (2) %"},
      {"measurement": "% of control metabolism, raloxifene G2", "setting": "[5]; [17]", "value": "50 (3) %"},
      {"measurement": "% of control metabolism, raloxifene G1", "setting": "[5]; [18]", "value": "85 (3) %"},
      {"measurement": "% of control metabolism, raloxifene G2", "setting": "[5]; [18]", "value": "82 (3) %"},
      {"measurement": "% of control metabolism, raloxifene G1", "setting": "[5]; [19]", "value": "56 (1) %"},
      {"measurement": "% of control metabolism, raloxifene G2", "setting": "[5]; [19]", "value": "63 (1) %"},
      {"measurement": "% of control metabolism, raloxifene G1", "setting": "[5]; [20]", "value": "46 (2) %"},
      {"measurement": "% of control metabolism, raloxifene G2", "setting": "[5]; [20]", "value": "50 (3) %"},
      {"measurement": "% of control metabolism, raloxifene G1", "setting": "[5]; [21]", "value": "22 (1) %"},
      {"measurement": "% of control metabolism, raloxifene G2", "setting": "[5]; [21]", "value": "27 (2) %"},
      {"measurement": "residual metabolism (% of control), 2ME2 MG1", "setting": "[6]; inhibitor 25 μM", "value": "66 (2) %"},
      {"measurement": "residual metabolism (% of control), 2ME2 MG1", "setting": "[6]; inhibitor 50 μM", "value": "50 (3) %"},
      {"measurement": "residual metabolism (% of control), 2ME2 MG1", "setting": "[6]; inhibitor 100 μM", "value": "35 (2) %"},
      {"measurement": "residual metabolism (% of control), E2-17-β-D-glucuronide", "setting": "[7]", "value": "82 (2) %"},
      {"measurement": "residual metabolism (% of control), E2-3-β-D-glucuronide", "setting": "[8]", "value": "45 (2) %"},
      {"measurement": "residual metabolism (% of control), E2-17-β-D-glucuronide", "setting": "[8]", "value": "70 (1) %"},
      {"measurement": "residual metabolism (% of control), E2-3-β-D-glucuronide", "setting": "[9]", "value": "46 (1) %"}
    ]}
  ]
}
